For 15 compounds, MIC and IC50 results are on record in ChEMBL document CHEMBL1135515, “Discovery of aminopyridine-based inhibitors of bacterial enoyl-ACP reductase (FabI)” (J Med Chem, 2002).

Values after ≈ are worked out from the molar mass of the structure shown.

For assay [1], the system named is Enterococcus faecalis. Briefly: Minimum concentration required for inhibition of Enterococcus faecalis was determined. Type of assay: functional.
The subject of assay [2] is Haemophilus influenzae. Put plainly: Minimum concentration required for inhibition of Haemophilus influenzae was determined. Type of assay: functional.
Assay [3] has as its system Staphylococcus aureus. Put plainly: Minimum concentration required for inhibition of Staphylococcus aureus was determined. It counts as functional.
The test system of assay [4] is Streptococcus pneumoniae. Briefly: Minimum concentration required for inhibition of Streptococcus pneumoniae was determined. Type of assay: functional.
The target of assay [5] is T1, Enoyl-[acyl-carrier-protein] reductase [NADPH] FabI (Staphylococcus aureus, UniProt Q6GI75).
T1 sequence (Q6GI75 whole entry): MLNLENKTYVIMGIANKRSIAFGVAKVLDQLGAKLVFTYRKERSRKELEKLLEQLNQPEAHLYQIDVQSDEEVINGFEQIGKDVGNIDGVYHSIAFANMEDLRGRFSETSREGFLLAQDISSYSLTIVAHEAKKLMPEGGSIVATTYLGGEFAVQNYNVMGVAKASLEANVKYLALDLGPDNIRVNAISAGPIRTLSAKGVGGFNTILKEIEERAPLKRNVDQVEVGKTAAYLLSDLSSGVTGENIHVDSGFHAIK
Briefly: Concentration required for the 50% inhibition of enoyl-ACP reductase from Staphylococcus aureus was determined.

Assay [6] is described as follows: Concentration required for the 50% inhibition of enoyl-ACP reductase from Haemophilus influenzae was determined.
Another assay has as its system Moraxella catarrhalis. Put plainly: Minimum concentration required for inhibition of Moraxella catarrhalis was determined. It counts as functional.
The subject of assay [7] is Enterococcus faecalis. Briefly: Minimum inhibitory concentration against growth of Enterococcus faecalis. It counts as functional.
Assay [8] in a line: Inhibitory concentration against Streptococcus pneumoniae Enoyl-ACP reductase.
The subject of assay [9] is Haemophilus influenzae. Briefly: Antibacterial activity was measured against Haemophilus influenzae. It counts as functional.
Assay [10] deals with Staphylococcus aureus. Put plainly: Antibacterial activity was measured against Staphylococcus aureus. It counts as functional.
Assay [11] relates to Streptococcus pneumoniae. Briefly: Minimum inhibitory concentration against growth of Streptococcus pneumoniae. Type of assay: functional.
Assay [12] can be described thus: Compound was measured for the inhibition of enoyl-ACP reductase from Staphylococcus aureus.
Assay [13] can be described thus: Compound was measured for the inhibition of enoyl-ACP reductase from Haemophilus influenzae.
The next assay has as its system Escherichia coli. Briefly: Minimum concentration required for inhibition of Escherichia coli AcrAB was determined. Type of assay: functional.
The nature of assay [14]: Concentration required for the 50% inhibition of Enoyl-ACP reductase from Streptococcus pneumoniae was determined.
Assay [15] concerns Haemophilus influenzae. Put plainly: Minimum concentration required for the inhibition of Haemophilus influenzae was determined. Type of assay: functional.
Assay [16] relates to Staphylococcus aureus. Briefly: Minimum concentration required for the inhibition of Staphylococcus aureus was determined. Type of assay: functional.

By IC50 is commonly meant the concentration that gives 50% inhibition. A higher IC50 goes with weaker potency. Turning to `CC(=O)N(C)Cc1cc(C(=O)N(C)Cc2cc3ccccc3n2C)ccc1N`, the MIC was more than 64 µg/mL with Enterococcus faecalis [1], more than 64 µg/mL in the assay with Haemophilus influenzae [2], 16 µg/mL (≈ 42.3 µM) in the assay with Staphylococcus aureus [3] and more than 64 µg/mL with Streptococcus pneumoniae [4]. The figures for the IC50 in [5] and in assay [6] were 6.7 µM and 4.7 µM, respectively.

`CN(Cc1cc2ccccc2n1C)C(=O)CCc1ccc(N)nc1`: the MIC with Enterococcus faecalis [1], against Haemophilus influenzae [2], against Staphylococcus aureus [3] and with Streptococcus pneumoniae [4] was more than 64 µg/mL each time. Also, the IC50 in assay [5] is 93.7 µM; in assay [6] it was 97.4 µM.

In the case of `CN1Cc2cc(C(=O)N(C)Cc3cc4ccccc4n3C)ccc2NCC1=O`, the MIC is more than 64 µg/mL against Enterococcus faecalis [1], more than 64 µg/mL against Haemophilus influenzae [2], 16 µg/mL (≈ 42.5 µM) in the assay with Staphylococcus aureus [3] and more than 64 µg/mL against Streptococcus pneumoniae [4]. Further, the values for the IC50 in [5] and in assay [6] were 21.2 µM and 2.5 µM, respectively.

Regarding `CN(Cc1cc2ccccc2n1C)C(=O)c1ccccc1`, the MIC against Enterococcus faecalis [1], against Haemophilus influenzae [2], against Staphylococcus aureus [3] and against Streptococcus pneumoniae [4] was more than 64 µg/mL in each case. The IC50 in assay [5] and in assay [6] was more than 100 µM throughout.

As for `COC(=O)CC1Nc2ccc(C(=O)N(C)Cc3cc4ccccc4n3C)cc2CN(C)C1=O` (stereo unspecified), the MIC with Enterococcus faecalis [1] was more than 64 µg/mL; in the assay with Haemophilus influenzae [2] it was more than 64 µg/mL; in the assay on Moraxella catarrhalis, 32 µg/mL (≈ 71.3 µM); in the assay with Staphylococcus aureus [3] it was more than 64 µg/mL; with Streptococcus pneumoniae [4], more than 64 µg/mL. Besides, the IC50 in assay [5] stood at 16.5 µM; in [6] it was 6.9 µM.

With `CN(Cc1cc2ccccc2n1C)C(=O)/C=C/c1cnc(N)nc1`, the MIC was more than 64 µg/mL with Enterococcus faecalis [1], more than 64 µg/mL against Haemophilus influenzae [2], 2 µg/mL (≈ 6.22 µM) against Staphylococcus aureus [3] and more than 64 µg/mL with Streptococcus pneumoniae [4]. In addition, the IC50 in [5] worked out at 2.2 µM; in assay [6], 4.3 µM.

For `CN(Cc1cc2ccccc2n1C)C(=O)/C=C/c1ccc(N)cc1`, the MIC against Enterococcus faecalis [7] was more than 64 µg/mL; against Haemophilus influenzae [9], more than 64 µg/mL; in the assay with Staphylococcus aureus [10] it was 32 µg/mL (≈ 100 µM); against Streptococcus pneumoniae [11], more than 64 µg/mL. The IC50 in assay [8] was more than 30 µM; in assay [12] it was more than 11.2 µM; in [13], 9 µM.

As for `CN(Cc1cc2ccccc2n1C)C(=O)/C=C/c1cccnc1`, the MIC with Enterococcus faecalis [1] was more than 64 µg/mL; against Haemophilus influenzae [2] it was more than 64 µg/mL; against Staphylococcus aureus [3], 16 µg/mL (≈ 52.4 µM); with Streptococcus pneumoniae [4] it was more than 64 µg/mL. Also, the figures for the IC50 in assay [5] and in [6] were 14.2 µM and 15.2 µM, respectively.

As for `CC(=O)N(C)Cc1cccc(C(=O)N(C)Cc2cc3ccccc3n2C)c1`, the MIC with Enterococcus faecalis [1], in the assay on Haemophilus influenzae [2], in the assay on Staphylococcus aureus [3] and in the assay on Streptococcus pneumoniae [4] was more than 64 µg/mL throughout. Further, the IC50 was found to be 107 µM in assay [5] and 121 µM in assay [6].

Take `CN(Cc1cc2ccccc2n1C)C(=O)c1ccc2c(c1)CN(C)C(=O)[C@H](C(=O)O)N2`: the MIC against Enterococcus faecalis [1], in the assay with Haemophilus influenzae [2], against Staphylococcus aureus [3] and in the assay with Streptococcus pneumoniae [4] was more than 64 µg/mL each time. Further, the IC50 was 676 µM in [5] and more than 100 µM in [6].

Consider `CN(Cc1cc2ccccc2n1C)C(=O)/C=C/c1ccc(N)nc1`, for which the MIC was 8 µg/mL (≈ 25 µM) in the assay on Escherichia coli; more than 64 µg/mL in the assay with Enterococcus faecalis [1]; more than 64 µg/mL in the assay with Haemophilus influenzae [2]; 4 µg/mL (≈ 12.5 µM) against Moraxella catarrhalis; 0.5 µg/mL (≈ 1.56 µM) in the assay on Staphylococcus aureus [3]; more than 64 µg/mL against Streptococcus pneumoniae [4]. Further, the figures for the IC50 in [5] and in [6] were 2.4 µM and 4.2 µM, respectively.

Turning to `CN(Cc1cc2ccccc2n1C)C(=O)c1ccc(N)nc1`, the MIC in the assay with Enterococcus faecalis [1], in the assay on Haemophilus influenzae [2], with Staphylococcus aureus [3] and in the assay on Streptococcus pneumoniae [4] was more than 64 µg/mL in each case. Further, the values for the IC50 in [5] and in [6] were more than 100 µM and 19.2 µM, respectively.

Turning to `COC(=O)C[C@H]1Nc2ccc(C(=O)N(C)Cc3cc4ccccc4n3C)cc2CN(C)C1=O`, the MIC with Enterococcus faecalis [1], against Haemophilus influenzae [2], in the assay on Staphylococcus aureus [3] and in the assay with Streptococcus pneumoniae [4] was more than 64 µg/mL each time. Besides, the figures for the IC50 in assay [5] and in [6] were 9.9 µM and 5.1 µM, respectively.

With `CN(Cc1cc2ccccc2n1C)C(=O)c1ccc(N)cc1`, the MIC is more than 64 µg/mL against Enterococcus faecalis [1], more than 64 µg/mL in the assay on Haemophilus influenzae [2], 32 µg/mL (≈ 109 µM) in the assay on Staphylococcus aureus [3] and more than 64 µg/mL in the assay with Streptococcus pneumoniae [4]. Besides, the IC50 was 16.3 µM in assay [5] and 2.6 µM in [6].

In assay [14], `Oc1cc(Cl)ccc1Oc1ccc(Cl)cc1Cl` [TRICLOSAN] had an IC50 of more than 30 µM. Also, the MIC in the assay with Haemophilus influenzae [15] and in the assay on Staphylococcus aureus [16] was not above 0.06 µg/mL in each case.
